Non-standard residues stand in square brackets, D forms with d. Residues, ends and D or L forms follow the SMILES beside them. Dmt = Cc1cc(O)cc(C)c1C[C@H](N)C(=O)O; Orn = NCCC[C@H](N)C(=O)O
Test system: A549 cells
Format: cell-based, human
Conditions: 24 h
Experimental: Cells were seeded in 96‐well cell culture plates (8000/well) and allowed to grow for 48 h. After washing with PBS, cells were fixed with 50% trichloroacetic acid and stained with SRB for 20 min. Excess SRB was removed, and cells were washed with 1% acetic acid. SRB extraction was done using 100 mM Tris‐base, and absorbance at 510 nm was determined using an Infinite M1000 plate reader (Tecan, Männedorf, Switzerland).
Fig. 7 PSD‐interacting peptides bind to PSD, inhibiting its activity, and when cell‐penetrating and mitochondria‐ or nucleus‐targeted, inhibit cell proliferation. […] (B) Inhibition of PSD activity by the 2F3 (●) or 1C11 (○) peptide. PSD activity was measured using the DSB‐3 method. (C‐E) Cell proliferation inhibition following incubation of A549 cells with the indicated mitochondria‐ or nucleus‐targeted peptides for 24 h in a serum‐free medium, and cell proliferation was assayed using the SRB method. Results are the means ± SEM (n = 3). (F) A549 cells were incubated for 90 min with 5 µM of the mitochondria‐ or nucleus‐targeted FITC‐labelled peptides, immunostained with anti‐SMAC antibodies and with DAPI and visualized by confocal microscope for subcellular localization. (a) and (b) present higher magnification, white arrows point to possible nuclear localization of the peptide, and blue arrows to its colocalization with mitochondria marker (n = 3). Scale bars represent 20, 10 µm as indicated.
Table S4. Effects of peptide identified as interacting with PSD or their interaction with SMAC/Diablo is prevented in the presence of PSD on A549 lung cancer cell growth A549 cells were seeded in 96-well plate (7000 cells/well). After 24 h cells were incubated without or with the indicated peptide concentration for 24 h in a serum-free medium. Then, cells were washed with PBS, and analyzed for cell growth using the SRB method. Results are the mean ± SD (n=3). Peptide sequence, its identification manner, based on interacting with PSD or their interaction with SMAC/Diablo is prevented in the presence of PSD are shown. In addition, the peptides are presented with the cell penetrating peptide targeting to the mitochondria or the nucleus. The results are presented as the concentration required for 50% inhibition (IC50).
No Peptide spot and Protein/Function Peptide and Cellular IC50 […]
ALSTSSPIPSVPQSQ transcriptional coactivator 2 Mitochondria (A) […]
AQPQTGSGAS truncated poly Q, transcriptional H-(D-Arg)–Dmt–Orn–Phe- 2F3 >100 Interacting with PSD coactivator for NOTCH proteins, Mitochondria promotes proliferative signaling R-{D-Arg}-RK- 2F3 28.9±5.2 during neurogenesis (Nucleus). Nucleus […]
PNQSSRAFQGTDHS transcriptional coactivator 2 Mitochondria
SDLAFDFLSQQ truncated poly Q, A transcriptional D-Arg–Dmt–Orn–Phe-2I8 66.8±4.7 Identified by PSD coactivator for NOTCH proteins, Mitochondria preventing SMAC promotes proliferative signaling R-{D-Arg}-RK-2I8 >100 interaction with it during neurogenesis (Nucleus). Nucleus […]
ALLTSGTSDPRARV protease promotes cell death either Mitochondria […]
TYGTPSLWARL by direct binding to IAPs proteins D-Arg–Dmt–Orn–Phe -1C11 89.3±5.49 Interacting with PSD leading to increased caspase Mitochondria activity or caspase-independent and serine protease activity-dependent R-{D-Arg}-RK- 1C11 66.5±3.9 mechanism. (Mitochondrion Nucleus intermembrane space). 1C11- R-{D-Arg}-RK 30.0±3.8 […]
ELYRMSTYSTFPAG Acts as an E3 ubiquitin-protein Mitochondria
VPVSERSLARA ligase, regulator of NF-kappa-B 1E14- D-Arg–Dmt–Orn–Phe >100 Identified by PSD signaling, apoptosis, cell Mitochondria preventing SMAC proliferation, cell invasion and R-{D-Arg}-RK-1E14 >100 interaction with it metastasis, modulates inflammatory Nucleus signaling, (Cytosol, nucleus and […]

Row | IC50 [µM] | Molecule
1 | 30.3 ± 5.5 | Cc1cc(O)cc(C)c1C[C@H](NC(=O)[C@@H](CCCNC(=N)N)NC(=O)[C@H](CC(C)C)NC(=O)[C@H](CCCNC(=N)N)NC(=O)[C@H](C)NC(=O)[C@H](Cc1c[nH]c2ccccc12)NC(=O)[C@H](CC(C)C)NC(=O)[C@H](CO)NC(=O)[C@@H]1CCCN1C(=O)[C@@H](NC(=O)CNC(=O)[C@H](Cc1ccc(O)cc1)NC(=O)[C@@H](NC(=O)[C@@H](NC(=O)[C@H](CCCNC(=N)N)NC(=O)[C@H](C)NC(=O)[C@H](CCCNC(=N)N)NC(=O)[C@@H]1CCCN1C(=O)[C@H](CC(=O)O)NC(=O)[C@H](CO)NC(=O)[C@@H](NC(=O)CNC(=O)[C@H](CO)NC(=O)[C@@H](NC(=O)[C@H](CC(C)C)NC(=O)[C@H](CC(C)C)NC(=O)[C@H](C)N)[C@@H](C)O)[C@@H](C)O)C(C)C)[C@@H](C)O)[C@@H](C)O)C(=O)N[C@@H](CCCN)C(=O)N[C@@H](Cc1ccccc1)C(N)=O [1C11-D-Arg–Dmt–Orn–Phe] (H-ALLTSGTSDPRARVTYGTPSLWARL[dR][Dmt][Orn]F-NH2; N-terminus and C-terminus assumed)
2 | 30 | CC(C)C[C@H](NC(=O)[C@H](C)N)C(=O)N[C@@H](CC(C)C)C(=O)N[C@H](C(=O)N[C@@H](CO)C(=O)NCC(=O)N[C@H](C(=O)N[C@@H](CO)C(=O)N[C@@H](CC(=O)O)C(=O)N1CCC[C@H]1C(=O)N[C@@H](CCCNC(=N)N)C(=O)N[C@@H](C)C(=O)N[C@@H](CCCNC(=N)N)C(=O)N[C@H](C(=O)N[C@H](C(=O)N[C@@H](Cc1ccc(O)cc1)C(=O)NCC(=O)N[C@H](C(=O)N1CCC[C@H]1C(=O)N[C@@H](CO)C(=O)N[C@@H](CC(C)C)C(=O)N[C@@H](Cc1c[nH]c2ccccc12)C(=O)N[C@@H](C)C(=O)N[C@@H](CCCNC(=N)N)C(=O)N[C@@H](CC(C)C)C(=O)N[C@@H](CCCNC(=N)N)C(=O)N[C@H](CCCNC(=N)N)C(=O)N[C@@H](CCCNC(=N)N)C(=O)N[C@@H](CCCCN)C(=O)O)[C@@H](C)O)[C@@H](C)O)C(C)C)[C@@H](C)O)[C@@H](C)O [1C11-R-{D-Arg}-RK] (H-ALLTSGTSDPRARVTYGTPSLWARLR[dR]RK-OH; N-terminus and C-terminus assumed)
3 | > 100 | CSCC[C@H](NC(=O)[C@H](CCCNC(=N)N)NC(=O)[C@H](Cc1ccc(O)cc1)NC(=O)[C@H](CC(C)C)NC(=O)[C@@H](N)CCC(=O)O)C(=O)N[C@@H](CO)C(=O)N[C@H](C(=O)N[C@@H](Cc1ccc(O)cc1)C(=O)N[C@@H](CO)C(=O)N[C@H](C(=O)N[C@@H](Cc1ccccc1)C(=O)N1CCC[C@H]1C(=O)N[C@@H](C)C(=O)NCC(=O)N[C@H](C(=O)N1CCC[C@H]1C(=O)N[C@H](C(=O)N[C@@H](CO)C(=O)N[C@@H](CCC(=O)O)C(=O)N[C@@H](CCCNC(=N)N)C(=O)N[C@@H](CO)C(=O)N[C@@H](CC(C)C)C(=O)N[C@@H](C)C(=O)N[C@@H](CCCNC(=N)N)C(=O)N[C@@H](C)C(=O)N[C@H](CCCNC(=N)N)C(=O)N[C@@H](Cc1c(C)cc(O)cc1C)C(=O)N[C@@H](CCCN)C(=O)N[C@@H](Cc1ccccc1)C(N)=O)C(C)C)C(C)C)[C@@H](C)O)[C@@H](C)O [1E14-D-Arg–Dmt–Orn–Phe] (H-ELYRMSTYSTFPAGVPVSERSLARA[dR][Dmt][Orn]F-NH2; N-terminus and C-terminus assumed)
4 | 29.6 ± 0.6 | CC[C@H](C)[C@H](NC(=O)[C@@H]1CCCN1C(=O)[C@H](CO)NC(=O)[C@H](CO)NC(=O)[C@@H](NC(=O)[C@H](CO)NC(=O)[C@H](CC(C)C)NC(=O)[C@H](C)N)[C@@H](C)O)C(=O)N1CCC[C@H]1C(=O)N[C@@H](CO)C(=O)N[C@H](C(=O)N1CCC[C@H]1C(=O)N[C@@H](CCC(N)=O)C(=O)N[C@@H](CO)C(=O)N[C@@H](CCC(N)=O)C(=O)N[C@@H](C)C(=O)N[C@@H](CCC(N)=O)C(=O)N1CCC[C@H]1C(=O)N[C@@H](CCC(N)=O)C(=O)N[C@H](C(=O)NCC(=O)N[C@@H](CO)C(=O)NCC(=O)N[C@@H](C)C(=O)N[C@@H](CO)C(=O)N[C@@H](CCCNC(=N)N)C(=O)N[C@H](CCCNC(=N)N)C(=O)N[C@@H](CCCNC(=N)N)C(=O)N[C@@H](CCCCN)C(=O)O)[C@@H](C)O)C(C)C [2F3-R-{D-Arg}-RK] (H-ALSTSSPIPSVPQSQAQPQTGSGASR[dR]RK-OH; N-terminus and C-terminus assumed)
5 | 30.2 ± 3.6 | Cc1cc(O)cc(C)c1C[C@H](NC(=O)[C@@H](CCCNC(=N)N)NC(=O)[C@H](CCC(N)=O)NC(=O)[C@H](CCC(N)=O)NC(=O)[C@H](CO)NC(=O)[C@H](CC(C)C)NC(=O)[C@H](Cc1ccccc1)NC(=O)[C@H](CC(=O)O)NC(=O)[C@H](Cc1ccccc1)NC(=O)[C@H](C)NC(=O)[C@H](CC(C)C)NC(=O)[C@H](CC(=O)O)NC(=O)[C@H](CO)NC(=O)[C@H](CO)NC(=O)[C@H](Cc1c[nH]cn1)NC(=O)[C@H](CC(=O)O)NC(=O)[C@@H](NC(=O)CNC(=O)[C@H](CCC(N)=O)NC(=O)[C@H](Cc1ccccc1)NC(=O)[C@H](C)NC(=O)[C@H](CCCNC(=N)N)NC(=O)[C@H](CO)NC(=O)[C@H](CO)NC(=O)[C@H](CCC(N)=O)NC(=O)[C@H](CC(N)=O)NC(=O)[C@@H]1CCCN1)[C@@H](C)O)C(=O)N[C@@H](CCCN)C(=O)N[C@@H](Cc1ccccc1)C(N)=O [2I8- (D-Arg)-Dmt-Orn-Phe-NH2] (H-PNQSSRAFQGTDHSSDLAFDFLSQQ[dR][Dmt][Orn]F-NH2; N-terminus assumed)
6 | 19.7 | CC(C)C[C@H](NC(=O)[C@H](CC(=O)O)NC(=O)[C@H](CO)NC(=O)[C@H](CO)NC(=O)[C@H](Cc1c[nH]cn1)NC(=O)[C@H](CC(=O)O)NC(=O)[C@@H](NC(=O)CNC(=O)[C@H](CCC(N)=O)NC(=O)[C@H](Cc1ccccc1)NC(=O)[C@H](C)NC(=O)[C@H](CCCNC(=N)N)NC(=O)[C@H](CO)NC(=O)[C@H](CO)NC(=O)[C@H](CCC(N)=O)NC(=O)[C@H](CC(N)=O)NC(=O)[C@@H]1CCCN1)[C@@H](C)O)C(=O)N[C@@H](C)C(=O)N[C@@H](Cc1ccccc1)C(=O)N[C@@H](CC(=O)O)C(=O)N[C@@H](Cc1ccccc1)C(=O)N[C@@H](CC(C)C)C(=O)N[C@@H](CO)C(=O)N[C@@H](CCC(N)=O)C(=O)N[C@@H](CCC(N)=O)C(=O)N[C@@H](CCCNC(=N)N)C(=O)N[C@H](CCCNC(=N)N)C(=O)N[C@@H](CCCNC(=N)N)C(=O)N[C@@H](CCCCN)C(=O)O [2I8-R-{D-Arg}-RK] (H-PNQSSRAFQGTDHSSDLAFDFLSQQR[dR]RK-OH; N-terminus and C-terminus assumed)
7 | 89.3 ± 5.49 | Cc1cc(O)cc(C)c1C[C@H](NC(=O)[C@H](N)CCCNC(=N)N)C(=O)N[C@@H](CCCN)C(=O)N[C@@H](Cc1ccccc1)C(=O)N[C@@H](C)C(=O)N[C@@H](CC(C)C)C(=O)N[C@@H](CC(C)C)C(=O)N[C@H](C(=O)N[C@@H](CO)C(=O)NCC(=O)N[C@H](C(=O)N[C@@H](CO)C(=O)N[C@@H](CC(=O)O)C(=O)N1CCC[C@H]1C(=O)N[C@@H](CCCNC(=N)N)C(=O)N[C@@H](C)C(=O)N[C@@H](CCCNC(=N)N)C(=O)N[C@H](C(=O)N[C@H](C(=O)N[C@@H](Cc1ccc(O)cc1)C(=O)NCC(=O)N[C@H](C(=O)N1CCC[C@H]1C(=O)N[C@@H](CO)C(=O)N[C@@H](CC(C)C)C(=O)N[C@@H](Cc1c[nH]c2ccccc12)C(=O)N[C@@H](C)C(=O)N[C@@H](CCCNC(=N)N)C(=O)N[C@@H](CC(C)C)C(=O)O)[C@@H](C)O)[C@@H](C)O)C(C)C)[C@@H](C)O)[C@@H](C)O [D-Arg–Dmt–Orn–Phe -1C11] (H-[dR][Dmt][Orn]FALLTSGTSDPRARVTYGTPSLWARL-OH; N-terminus and C-terminus assumed)

Same assay, conditions: A549 cells, 24 h, serum‐free medium, SRB; read-out: IC50, cell proliferation inhibition

Row | Molecule | IC50 [µM]
8 | 2F3 -D-Arg–Dmt–Orn–Phe | 19.6
9 | CC[C@H](C)[C@H](NC(=O)[C@@H]1CCCN1C(=O)[C@H](CO)NC(=O)[C@H](CO)NC(=O)[C@@H](NC(=O)[C@H](CO)NC(=O)[C@H](CC(C)C)NC(=O)[C@H](C)N)[C@@H](C)O)C(=O)N1CCC[C@H]1C(=O)N[C@@H](CO)C(=O)N[C@H](C(=O)N1CCC[C@H]1C(=O)N[C@@H](CCC(N)=O)C(=O)N[C@@H](CO)C(=O)N[C@@H](CCC(N)=O)C(=O)N[C@@H](C)C(=O)N[C@@H](CCC(N)=O)C(=O)N1CCC[C@H]1C(=O)N[C@@H](CCC(N)=O)C(=O)N[C@H](C(=O)NCC(=O)N[C@@H](CO)C(=O)NCC(=O)N[C@@H](C)C(=O)N[C@@H](CO)C(=O)N[C@@H](CCCNC(=N)N)C(=O)N[C@H](CCCNC(=N)N)C(=O)N[C@@H](CCCNC(=N)N)C(=O)N[C@@H](CCCCN)C(=O)O)[C@@H](C)O)C(C)C [2F3-R-{D-Arg}-RK] (H-ALSTSSPIPSVPQSQAQPQTGSGASR[dR]RK-OH; N-terminus and C-terminus assumed) | 19.6
